# According to patent US12264146B2, “Rho kinase inhibitor, method for preparing same and uses thereof” (BEIJING INCREASE INNOVATIVE DRUG CO., LTD., priority 2018, dated 2025):
# Where a name gives a salt, the structure may show the parent alone.
# Experiment: Toxicity test on endothelial cells EA.hy926, CCK-8 cell viability
# Assay type: cell-based
# Settings: human, 1000~0.32 μmol/L, 5-fold dilution, read-out: IC50 of Test compound (cytotoxicity on EA.hy926 cells)
# Experimental: In this test example, 31 groups, i.e., Groups 1 to 31, were set, in which Group 1 was a blank control group, Group 2 was a normal control group, Group 3 was a positive control group, and Groups 4 to 31 were test groups of the compounds of the present application. The specific test operation comprised: 100 μL of endothelial cells EA.hy926 (purchased from Suzhou Beina Chuanglian Biotechnology Co., Ltd.) with a density of 5×10^4 was added to each well of a 96-well plate, and transferred to an incubator at 37° C. with 5% CO2 and saturated humidity conditions and cultured for 24 hours, 100 μL of 2× the test compound solution prepared and diluted with DMEM medium containing 10% fetal bovine serum was added, in which the test compound added in the positive control group was Fasudil hydrochloride (purchased from Beijing Sihuan Pharmaceutical Co., Ltd., SFDA approval number H20173349) solution with different concentrations, an equal volume of DMEM medium was added in the blank control group, an equal volume of PBS buffer was added in the normal control group, and a duplicate well was set for each concentration point. After adding the test compound, the culture was continued in the incubator for 24 hours, then 20 μL of CCK-8 detection solution (purchased from Beijing Solarbio Science & Technology Co., Ltd., Cat. No. CA1210) was added to each well, interacted at 37° C. for 2.5 hours, shaken and mixed well, and then the absorbance value at 450 nm was detected.
# OD values were detected, and the cell viability values of test groups of different concentrations were calculated according to the cell viability calculation formula as follows: Cell viability=(Atest group−Ablank control)/(Anormal control−Ablank control)*100%
# wherein A represented absorbance value at 450 nm.
# Prism6.0 was used to obtain the inhibitor concentration-viability curve and to calculate the IC50 of the test compound, the correlation coefficient R^2>0.99; the inhibitor concentration-viability curves of Fasudil hydrochloride, R-YK1601, R-YK1603, R-YK1606, R-YK1607, R-YK1610 were shown in FIGS. 1 to 6, in which the abscissa was the logarithm on base 10 of the concentration of the test compound, and the ordinate was the cell activity (i.e., cell viability).
row,SMILES,IC50 at 24 h [µM]
1,"C[C@@H]1CNCCCN1S(=O)(=O)c1cccc2c(O)ncc(C3CC3)c12 [Compound R-YK1600-1, (R)-4-cyclopropyl-5-((2-methyl-1,4-diazacycloheptan-1-yl)sulfonyl)isoquinolin-1-ol]",188
2,"COc1ncc(C2CC2)c2c(S(=O)(=O)N3CCCNC[C@H]3C)cccc12 [Compound R-YK1600-2, (R)-4-cyclopropyl-1-methoxy-5-((2-methyl-1,4-diazacycloheptan-1-yl)sulfonyl)isoquinoline]",145
3,"C[C@@H]1CNCCCN1S(=O)(=O)c1cccc2c(O)nccc12 [Compound R-YK1601, (R)-5-((2-methyl-1,4-diazacycloheptan-1-yl)sulfonyl)isoquinolin-1-ol]",686
4,"COc1nccc2c(S(=O)(=O)N3CCCNC[C@H]3C)cccc12 [Compound R-YK1602, (R)-1-methoxy-5-((2-methyl-1,4-diazacycloheptan-1-yl)sulfonyl)isoquinoline]",433
5,"C[C@@H]1CNCCCN1S(=O)(=O)c1cccc2cnccc12 [Compound R-YK1603, (R)-5-((2-methyl-1,4-diazacycloheptan-1-yl)sulfonyl)isoquinoline]",256
6,"C[C@@H]1CNCCCN1S(=O)(=O)c1cccc2c(O)ncc(F)c12 [Compound R-YK1604, (R)-4-fluoro-5-((2-methyl-1,4-diazacycloheptan-1-yl)sulfonyl)isoquinolin-1-ol]",210
7,"COc1ncc(F)c2c(S(=O)(=O)N3CCCNC[C@H]3C)cccc12 [Compound R-YK1605, (R)-4-fluoro-1-methoxy-5-((2-methyl-1,4-diazacycloheptan-1-yl)sulfonyl)isoquinoline]",184
8,"C[C@@H]1CNCCCN1S(=O)(=O)c1cccc2c(O)ncc(Cl)c12 [Compound R-YK1606, (R)-4-chloro-5-((2-methyl-1,4-diazacycloheptan-1-yl)sulfonyl)isoquinolin-1-ol]",181
9,"CCc1cnc(O)c2cccc(S(=O)(=O)N3CCCNC[C@H]3C)c12 [Compound R-YK1607, (R)-4-ethyl-5-((2-methyl-1,4-diazacycloheptan-1-yl)sulfonyl)isoquinolin-1-ol]",230
10,"O=S(=O)(c1cccc2cnccc12)N1CCCNC[C@H]1C1CC1 [Compound R-YK1608, (R)-5-((2-cyclopropyl-1,4-diazacycloheptan-1-yl)sulfonyl)isoquinoline]",165
11,"CC(C)[C@@H]1CNCCCN1S(=O)(=O)c1cccc2c(O)nccc12 [Compound R-YK1609, (R)-5-((2-isopropyl-1,4-diazacycloheptan-1-yl)sulfonyl)isoquinolin-1-ol]",327
12,"CC[C@@H]1CNCCCN1S(=O)(=O)c1cccc2c(OC)nccc12 [Compound R-YK1610, (R)-5-((2-ethyl-1,4-diazacycloheptan-1-yl)sulfonyl)-1-methoxyisoquinoline]",169
13,"CCCC[C@@H]1CNCCCN1S(=O)(=O)c1cccc2c(O)nccc12 [Compound R-YK1611, (R)-5-((2-butyl-1,4-diazacycloheptan-1-yl)sulfonyl)isoquinolin-1-ol]",284
14,"COc1nccc2c(S(=O)(=O)N3CCCNC[C@H]3CCC(C)C)cccc12 [Compound R-YK1612, (R)-5-((2-isopentyl-1,4-diazacycloheptan-1-yl)sulfonyl)-1-methoxyisoquinoline]",176
15,"O=S(=O)(c1cccc2cnccc12)N1CCCNCC1 [Fasudil hydrochloride, reference compound]",75.7
